This note sets out measurements from patent publication US9890185B2, “Urea derivatives useful as kinase inhibitors” (Respivert Limited, priority 2013, dated 2018).

The test system of one experiment is PBMCs. In words: LPS-induced IL-8 release in PBMC cells (assay b). The class given is cell-based, human. The following applies: Homo sapiens, PBMC; LPS-stimulated PBMCs; read-out: IC50 Values for Inhibition of Cytokine Release, PBMCs IL-8. In a few lines: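 Human PBMCs from healthy donors, isolated by density gradient, were pretreated with compound for 2 h and then stimulated with 1 ng/mL LPS (E. coli 0111:B4) for 24 h at 37° C, 5% CO2. Supernatant IL-8 and TNFα were measured by sandwich ELISA, and IC50 was taken from the dose-response curve.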

For the next experiment, the target named is GSK 3α (Homo sapiens (Human), UniProt P49840). The experiment in a line: GSK 3α enzyme inhibition (FRET, Z-LYTE, Method 2). The class given is biochemical. Conditions: read-out: IC50 Values for Enzyme Inhibition, GSK3α. Summed up: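 Human GSK3α (500 ng/mL) preincubated with compound (4, 0.4, 0.04 or 0.004 μg/mL) at RT for 2 h (Method 1) or 105 min (Method 2). Then FRET peptide (8 μM) and ATP (40 μM) added for 1 h, followed by protease development for 1 h. IC50 from the coumarin/fluorescein emission ratio relative to uninhibited control.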
Chain of GSK 3α (P49840 whole entry): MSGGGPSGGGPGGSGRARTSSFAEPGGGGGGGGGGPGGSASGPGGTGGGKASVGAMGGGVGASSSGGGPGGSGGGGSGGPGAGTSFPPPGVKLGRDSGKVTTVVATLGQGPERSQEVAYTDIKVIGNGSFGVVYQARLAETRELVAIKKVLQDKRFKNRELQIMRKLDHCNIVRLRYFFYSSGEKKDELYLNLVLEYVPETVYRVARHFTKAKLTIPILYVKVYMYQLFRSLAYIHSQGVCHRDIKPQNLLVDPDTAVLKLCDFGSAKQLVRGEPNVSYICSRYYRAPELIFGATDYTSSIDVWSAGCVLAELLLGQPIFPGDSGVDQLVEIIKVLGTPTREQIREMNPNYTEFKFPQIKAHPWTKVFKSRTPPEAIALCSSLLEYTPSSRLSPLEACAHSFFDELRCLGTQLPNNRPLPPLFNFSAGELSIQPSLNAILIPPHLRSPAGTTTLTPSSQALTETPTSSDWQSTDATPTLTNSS

Experiment [1] deals with p38 MAPKα isoform (MAPK14) (Homo sapiens (Human), UniProt Q16539). In words: p38 MAPKα enzyme inhibition (FRET, Z-LYTE, Method 2). The class given is biochemical. The protocol: (§1) The enzyme inhibitory activities of compounds disclosed herein are determined by FRET using synthetic peptides labelled with both donor and acceptor fluorophores (Z-LYTE, Invitrogen Ltd., Paisley, UK).
Chain of p38 MAPKα isoform (MAPK14) (Q16539 whole entry, canonical isoform): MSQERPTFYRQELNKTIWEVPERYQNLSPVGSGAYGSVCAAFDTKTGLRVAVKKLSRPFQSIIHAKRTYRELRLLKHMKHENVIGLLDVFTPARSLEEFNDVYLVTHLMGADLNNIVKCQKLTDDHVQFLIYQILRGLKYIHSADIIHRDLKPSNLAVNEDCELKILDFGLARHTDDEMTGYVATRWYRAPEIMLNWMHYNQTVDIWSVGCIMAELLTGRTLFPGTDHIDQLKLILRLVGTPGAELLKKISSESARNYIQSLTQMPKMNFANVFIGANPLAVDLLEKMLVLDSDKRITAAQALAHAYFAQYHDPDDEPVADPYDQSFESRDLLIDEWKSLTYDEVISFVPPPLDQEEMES
The following two assay variants can be used for determination of p38 MAPKα inhibition.
The inhibitory activities of test compounds against the p38 MAPKα isoform (MAPK14: Invitrogen), are evaluated indirectly by determining the level of activation/phosphorylation of the down-stream molecule, MAPKAP-K2. The p38 MAPKα protein (80 ng/mL, 2.5 μL) is mixed with the test compound (2.5 μL of either 4 μg/mL, 0.4 μg/mL, 0.04 μg/mL or 0.004 μg/mL) for 2 hr at RT. […] The mixture is incubated for 1 hr at RT. Development reagent (protease, 5 μL) is added for 1 hr prior to detection in a fluorescence microplate reader (Varioskan® Flash, ThermoFisher Scientific).
This method follows the same steps as Method 1 above, but utilises a higher concentration of the p38 MAPKα protein (2.5 μL of 200 ng/mL protein instead of 2.5 μL of 80 ng/mL protein) for mixing with the test compound.
(§2) In all cases, the site-specific protease cleaves non-phosphorylated peptide only and eliminates the FRET signal. Phosphorylation levels of each reaction are calculated using the ratio of coumarin emission (donor) over fluorescein emission (acceptor), for which high ratios indicate high phosphorylation and low ratios indicate low phosphorylation levels. The percentage inhibition of each reaction is calculated relative to non-inhibited control and the 50% inhibitory concentration (IC50 value) is then calculated from the concentration-response curve.

The next experiment has as its system d-U937 cells. In words: Accumulation of β catenin in d-U937 cells (assay m). The format is cell-based, human. Conditions: percentage relative to Reference Compound at 1 μg/mL. Here is the method:
U937 cells, a human monocytic cell line, are differentiated into macrophage-type cells by incubation with PMA; (100 ng/mL) for between 48 to 72 hr. The cells are then incubated with either final concentrations of test compound or vehicle for 18 hr. The induction of β-catenin by the test compounds is stopped by replacing the media with 4% formaldehyde solution. Endogenous peroxide activity is neutralised by incubating with quenching buffer (100 μL, 0.1% sodium azide, 1% H2O2 in PBS with 0.05% Tween-20) for 20 min. The cells are washed with washing buffer (200 μL; PBS containing 0.05% Tween-20) and incubated with blocking solution (200 μL; 5% milk in PBS) for 1 hr, re-washed with washing buffer (200 μL) and then incubated overnight with anti-β-catenin antibody solution (50 μL) in 1% BSA/PBS (BD, Oxford, UK).
After washing with washing buffer (3×200 μL; PBS containing 0.05% Tween-20), cells are incubated with an HRP-conjugated secondary antibody solution (100 μL) in 1% BSA/PBS (Dako, Cambridge, UK) and the resultant signal is determined colourimetrically (OD: 450 nm with a reference wavelength of 655 nm) using TMB substrate (50 μL; R&D Systems, Abingdon, UK). This reaction is stopped by addition of 1N H2SO4 solution (50 μL). Cells are then washed with washing buffer and 2% crystal violet solution (50 μL) is applied for 30 min. After washing with washing buffer (3×200 μL), 1% SDS (100 μL) is added to each well and the plates are shaken lightly for 1 hr prior to measuring the absorbance at 595 nm (Varioskan® Flash, Thermo-Fisher Scientific).
The measured OD450-655 readings are corrected for cell number by dividing the OD450-655 by the OD595 readings.

A further experiment addresses Syk (Homo sapiens (Human), UniProt P43405). In words: Syk enzyme inhibition (FRET, Z-LYTE). The class given is biochemical. Here is the method:
as §1
(§3) The inhibitory activities of compounds of the invention against c-Src and Syk enzymes (Invitrogen), are evaluated in a similar fashion to that described hereinabove. The relevant enzyme (3000 ng/mL or 2000 ng/mL respectively, 2.5 μL) is incubated with the test compound (either 4 μg/mL, 0.4 μg/mL, 0.04 μg/mL, or 0.004 μg/mL, 2.5 μL each) for 2 hr at RT. The FRET peptides (8 μM, 2.5 μL), and appropriate ATP solutions (2.5 μL, 800 μM for c-Src, and 60 μM ATP for Syk) are then added to the enzymes/compound mixtures and incubated for 1 hr. Development reagent (protease, 5 μL) is added for 1 hr prior to detection in a fluorescence microplate reader (Varioskan® Flash, ThermoFisher Scientific).
as §2

The target of the next experiment is c-Src (Homo sapiens (Human), UniProt P12931). The experiment in a line: c-Src enzyme inhibition (FRET, Z-LYTE). The format is biochemical. Here is the method:
as §1, §3, §2

Chain of c-Src (P12931 whole entry, looked up): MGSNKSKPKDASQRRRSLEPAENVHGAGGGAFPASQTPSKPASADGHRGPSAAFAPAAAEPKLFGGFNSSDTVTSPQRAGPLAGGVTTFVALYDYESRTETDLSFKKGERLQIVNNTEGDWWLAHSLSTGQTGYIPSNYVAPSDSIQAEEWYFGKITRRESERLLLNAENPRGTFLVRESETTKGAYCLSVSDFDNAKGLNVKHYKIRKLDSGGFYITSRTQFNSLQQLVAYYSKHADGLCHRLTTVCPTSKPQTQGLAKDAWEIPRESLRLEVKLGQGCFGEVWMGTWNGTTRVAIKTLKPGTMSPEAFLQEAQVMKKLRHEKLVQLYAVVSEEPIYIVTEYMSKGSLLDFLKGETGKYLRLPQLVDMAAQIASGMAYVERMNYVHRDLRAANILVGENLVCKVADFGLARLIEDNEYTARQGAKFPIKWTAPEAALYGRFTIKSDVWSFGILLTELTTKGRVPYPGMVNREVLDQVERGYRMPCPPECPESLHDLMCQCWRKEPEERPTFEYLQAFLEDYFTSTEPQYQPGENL

With `COc1c(NC(=O)Nc2ccc(Oc3ccnc(Nc4ccccc4)c3)c3ccccc23)cc(C(C)(C)C)cc1S(C)(=O)=O` [15(m), 1-(5-(tert-butyl)-2-methoxy-3-(methylsulfonyl)phenyl)-3-(4-((2-(phenylamino)pyridin-4-yl)oxy)naphthalen-1-yl)urea], the figures for the IC50 (with PBMCs; on GSK 3α; in experiment [1]) were 16 nM, greater than 16400 nM and 747 nM, respectively. For the same compound, the “% β-catenin induction” value in the experiment on d-U937 cells (test compound 1 μg/mL) was −3.0%; in the experiment with d-U937 cells (test compound 5 μg/mL) it was 5.0%; in the experiment on d-U937 cells (test compound 10 μg/mL), 5.0%.
As to `COc1cc(Nc2cc(Oc3ccc(NC(=O)Nc4cc(C(C)(C)C)cc(OCC(CO)(CO)CO)c4OC)c4ccccc34)ccn2)cc(C(N)=O)c1` [Example 67, 3-((4-((4-(3-(5-(tert-Butyl)-3-(3-hydroxy-2,2-bis(hydroxymethyl)propoxy)-2-methoxyphenyl)ureido)naphthalen-1-yl)oxy)pyridin-24)amino)-5-methoxybenzamide], the IC50 in the experiment on PBMCs came out at 5.6 nM; at GSK 3α it was 4260 nM; in experiment [1], 284 nM.
Consider `COCCOCCOCCNC(=O)c1cc(C(C)(C)C)cc(NC(=O)Nc2ccc(Oc3ccnc(Nc4cc(OC)cc(OCCOCCOCCOC)c4)n3)c3ccccc23)c1OC` [Example 7, 5-(tert-Butyl)-2-methoxy-3-(3-(4-((2-((3-methoxy-5-(2-(2-(2-methoxyethoxy)ethoxy)ethoxy)-phenyl)amino)pyrimidin-4-yl)oxy)naphthalen-1-yl)ureido)-N-(2-(2-(2-methoxyethoxy)ethoxy)-ethyl)benzamide], for which the IC50 came to 4.6 nM in the experiment with PBMCs, 1070 nM on GSK 3α, 108 nM in experiment [1] and 57 nM on Syk.
On to `COc1cccc(Nc2cc(Oc3ccc(NC(=O)Nc4cc(C(C)(C)C)cc(P(C)(C)=O)c4OC)c4ccccc34)ccn2)c1` [15(af), 1-(5-(tert-butyl)-3-(dimethylphosphoryl)-2-methoxyphenyl)-3-(4-((2-((3-methoxy-phenyl)amino)pyridin-4-yl)oxy)naphthalen-1-yl)urea], for which the IC50 in the experiment on PBMCs was 2.7 nM; on GSK 3α, 9400 nM; against c-Src it was 77 nM; in experiment [1] it was 226 nM; at Syk it was 278 nM. The “% β-catenin induction” value in the experiment with d-U937 cells (test compound 1 μg/mL) is listed as −2.0%; with d-U937 cells (test compound 5 μg/mL) it was 13.0%; with d-U937 cells (test compound 10 μg/mL), 32.0%.
On to `COc1c(NC(=O)Nc2ccc(Oc3ccnc(NCc4ccccn4)n3)c3ccccc23)cc(C(C)(C)C)cc1P(C)(C)=O` [Example 32, 1-(5-(tert-Butyl)-3-(dimethylphosphoryl)-2-methoxyphenyl)-3-(4-((2-((pyridin-2-ylmethyl)-amino)pyrimidin-4-yl)oxy)naphthalen-1-yl)urea], for which the IC50 in the experiment with PBMCs was 1.8 nM; at GSK 3α, 988 nM; against c-Src, 1110 nM; in experiment [1], 6 nM; against Syk, 1600 nM.
Regarding `COc1cc(Nc2cc(Oc3ccc(NC(=O)Nc4cc(C(C)(C)C)cc(CC(N)=O)c4OC)c4ccccc34)ccn2)cc(C(=O)NCC(CO)(CO)CO)c1` [38(al), 3-((4-((4-(3-(3-(2-Amino-2-oxoethyl)-5-(tert-butyl)-2-methoxyphenyl)ureido)naphthalen-1-yl)oxy)pyridin-2-yl)amino)-N-(3-hydroxy-2,2-bis(hydroxymethyl)propyl)-5-methoxybenzamide], the IC50 with PBMCs worked out at 7.2 nM; on GSK 3α, 1970 nM; in experiment [1] it was 44 nM.
For `COc1cc(Nc2cc(Oc3ccc(NC(=O)Nc4cc(C(C)(C)C)cc(P(C)(C)=O)c4OC)c4ccccc34)ccn2)cc(S(=O)(=O)N(C)CCN2CCN(C)CC2)c1` [79(m), 3-((4-((4-(3-(5-(tert-Butyl)-3-(dimethylphosphoryl)-2-methoxyphenyl)ureido)naphthalen-1-yl)oxy)pyridin-2-yl)amino)-5-methoxy-N-methyl-N-(2-(4-methylpiperazin-1-yl)ethyl)benzene sulfonamide], the half-inhibitory concentration (IC50) with PBMCs is 1.8 nM; against c-Src it was 25 nM; in experiment [1], 6 nM; against Syk it was 7 nM.
As for `COc1c(NC(=O)Nc2ccc(Oc3ccnc(N(C)C)n3)c3ccccc23)cc(C(C)(C)C)cc1P(C)(C)=O` [15(ak), 1-(5-(tert-butyl)-3-(dimethylphosphoryl)-2-methoxyphenyl)-3-(4-((2-(dimethylamino)-pyrimidin-4-yl)oxy)naphthalen-1-yl)urea], the IC50 was 26 nM with PBMCs; greater than 17800 nM at GSK 3α; greater than 1780 nM against c-Src; 38 nM in experiment [1]; greater than 1780 nM at Syk.
Turning to `COc1c(NC(=O)Nc2ccc(Oc3ccnc(Nc4cc(C)c5[nH]ncc5c4)n3)c3ccccc23)cc(C(C)(C)C)cc1P(C)(C)=O` [15(j), 1-(5-(tert-butyl)-3-(dimethylphosphoryl)-2-methoxyphenyl)-3-(4-((2-((7-methyl-1H-indazol-5-yl)amino)pyrimidin-4-yl)oxy)naphthalen-1-yl)urea], the IC50 in the experiment with PBMCs came to 3.2 nM; at GSK 3α, 855 nM; on c-Src, 19 nM; in experiment [1], 173 nM; at Syk it was 16 nM.
On to `COc1c(NC(=O)Nc2ccc(Oc3ccnc(Nc4ccccc4)n3)c3ccccc23)cc(C(C)(C)C)cc1P(C)(C)=O` [15(b), 1-(5-(tert-butyl)-3-(dimethylphosphoryl)-2-methoxyphenyl)-3-(4-((2-(phenylamino)-pyrimidin-4-yl)oxy)naphthalen-1-yl)urea], for which the IC50 amounted to 4.5 nM in the experiment with PBMCs; 785 nM at GSK 3α; 14 nM against c-Src; 59 nM in experiment [1]; 273 nM on Syk.
